Reference: PMC3137752 (Alcohol (Fayetteville, N.Y.), 2010)

Columns and labels:
α6-100R-β3γ2 (α6β3γ2s) [1] = molecular target: α6-100R-β3γ2 (α6β3γ2s) (Rattus norvegicus, UniProt P18508+P30191); test: radioligand association/dissociation kinetics, filtration; format: binding
α6-100R-β3γ2 (α6β3γ2s) [2] = molecular target: α6-100R-β3γ2 (α6β3γ2s) (Rattus norvegicus, UniProt P18508+P30191, P30191:R119Q); test: as above; format: binding
Sequence of α6-100R-β3γ2 (α6β3γ2s) (Rattus norvegicus, UniProt P18508+P30191, P30191:R119Q) (P30191 20-453 R119Q): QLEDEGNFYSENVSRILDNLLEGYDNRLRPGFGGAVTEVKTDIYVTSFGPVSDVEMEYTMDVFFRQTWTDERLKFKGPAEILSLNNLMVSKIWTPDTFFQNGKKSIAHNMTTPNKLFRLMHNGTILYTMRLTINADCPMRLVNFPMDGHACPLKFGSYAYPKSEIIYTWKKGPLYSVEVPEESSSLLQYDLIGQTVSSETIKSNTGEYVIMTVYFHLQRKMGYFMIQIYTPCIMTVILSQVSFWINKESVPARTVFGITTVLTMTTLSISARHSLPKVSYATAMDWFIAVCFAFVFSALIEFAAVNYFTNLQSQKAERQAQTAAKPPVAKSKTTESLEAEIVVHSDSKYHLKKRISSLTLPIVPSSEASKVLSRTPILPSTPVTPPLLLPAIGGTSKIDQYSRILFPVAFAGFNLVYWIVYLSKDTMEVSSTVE
Sequence of α6-100R-β3γ2 (α6β3γ2s) (Rattus norvegicus, UniProt P18508+P30191, P30191:R119Q) (P18508 39-466): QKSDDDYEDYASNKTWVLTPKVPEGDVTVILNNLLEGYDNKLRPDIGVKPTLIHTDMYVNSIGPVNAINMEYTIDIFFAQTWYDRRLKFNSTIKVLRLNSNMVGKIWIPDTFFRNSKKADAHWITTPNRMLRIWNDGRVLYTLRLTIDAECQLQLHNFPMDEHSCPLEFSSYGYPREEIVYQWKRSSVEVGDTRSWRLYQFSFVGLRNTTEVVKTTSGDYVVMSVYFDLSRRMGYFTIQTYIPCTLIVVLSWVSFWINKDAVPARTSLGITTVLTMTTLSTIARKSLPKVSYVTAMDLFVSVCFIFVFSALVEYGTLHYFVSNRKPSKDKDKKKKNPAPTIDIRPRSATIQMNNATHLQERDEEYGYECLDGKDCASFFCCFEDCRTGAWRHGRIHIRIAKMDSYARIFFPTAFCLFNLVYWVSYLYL
Sequence of α6-100R-β3γ2 (α6β3γ2s) (Rattus norvegicus, UniProt P18508+P30191, P30191:R119Q) (P63079 26-473 partner): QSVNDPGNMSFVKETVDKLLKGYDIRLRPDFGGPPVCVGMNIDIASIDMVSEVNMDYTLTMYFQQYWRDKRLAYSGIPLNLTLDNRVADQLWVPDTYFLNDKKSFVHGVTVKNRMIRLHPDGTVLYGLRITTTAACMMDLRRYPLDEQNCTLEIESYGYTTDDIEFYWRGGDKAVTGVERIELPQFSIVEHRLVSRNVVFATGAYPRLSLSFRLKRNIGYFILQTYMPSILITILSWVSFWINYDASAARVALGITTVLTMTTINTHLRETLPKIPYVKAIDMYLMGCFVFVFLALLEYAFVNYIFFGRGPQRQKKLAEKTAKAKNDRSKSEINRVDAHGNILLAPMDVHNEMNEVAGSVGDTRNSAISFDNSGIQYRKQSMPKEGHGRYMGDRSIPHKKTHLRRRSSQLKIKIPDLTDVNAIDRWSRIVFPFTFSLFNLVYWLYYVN

Sequence of α6-100R-β3γ2 (α6β3γ2s) (Rattus norvegicus, UniProt P18508+P30191) (P30191 20-453): as the sequence (P30191 20-453 R119Q) above, with Q100R counted along it
Sequence of α6-100R-β3γ2 (α6β3γ2s) (Rattus norvegicus, UniProt P18508+P30191) (P18508 39-466): as the sequence (P18508 39-466) above
Sequence of α6-100R-β3γ2 (α6β3γ2s) (Rattus norvegicus, UniProt P18508+P30191) (P63079 26-473 partner): as the sequence (P63079 26-473 partner) above

Work on `CCOC(=O)c1ncn2c1CN(C)C(=O)c1cc(N=[N+]=[N-])ccc1-2` [[^3H]Ro 15-4513] yielded a Kd (α6-100R-β3γ2 (α6β3γ2s) [1]) of 2.4 ± 0.4 nM and a Kd (α6-100R-β3γ2 (α6β3γ2s) [2]) of 1 ± 0.1 nM.
